Source: patent US10039729B2, “Use of kukoamine A and kukoamine B” (Tianjin Chase Sun Pharmaceutical Co., Ltd., priority 2010, dated 2018)

Test system: mice challenged by heat-killed Escherichia coli
Experiment: Protection on mice challenged by lethal dose of heat-killed Escherichia coli
Format: in vivo, Kunming mice
Experimental: Preparation of heat-killed Escherichia coli (E. coli) ATCC 35218: Bacteria culture was performed according to Clinical Laboratory Procedures. Single bacterial colony of E. coli from LB agar plates were picked and transferred into 10 mL sterile liquid of LB broth using a sterile inoculating loop, and cultivated at 37° C. in a shaker (250 rpm). After medium become turbid, these culture medium were then transferred to 2000 mL of fresh LB medium and cultivated at 37° C. in a shaker (250 rpm) for 12 h. The suspension was collected, transferred into 1000 ml centrifuge tube, and centrifuged at 5000 rpm for 15 min. The supernatant was discarded. The bacteria were collected, washed and resuspended into sterile saline, and then centrifuged again under the same condition. Above-mentioned process was repeated thrice. The bacteria pellet was resuspended with a pipet in 50 ml sterile saline, transferred into 100 ml saline bottle, and boiled in electric furnace for 30 min. Then the suspension of heat-killed Escherichia coli was obtained. The suspension of E. coli was diluted by 100 fold, and measured OD value at 600 nm on nucleic acid protein analyzer. Conversion was made according to the regression equation of OD value and concentration, and the suspension was diluted according to the conversion result. Then the operating fluids for mice injection were obtained.
Observation of CL-4b protection on mice challenged by heat-killed Escherichia coli: A total of […] Kunming mice (18˜20 g), half male and half female, were divided into three groups randomly: CL-4b control group, heat-killed E. coli group and CL-4b treatment group. Each group has 10 mice, half male and half female. CL-4b control group was injected with CL-4b (60 mg/kg) and sterile saline; heat-killed E. coli group was injected with heat-killed Escherichia coli (1.0×10^10 CFU/ml) and sterile saline; CL-4b treatment group was injected with CL-4 ([…]) at 10 min after heat-killed E. coli injection. The injection volume of each solution was 200 μl per 20 g body weight via tail vein. […]
(1) Single dose experiment: Experiment 1: A total of 40 Kunming mice (18-20 g), half male and half female, were divided into two groups randomly, heat-killed E. coli control group and KB (30 mg/kg) treatment group; each group has 20 mice; after animal weighing, heat-killed E. coli group was injected with heat-killed Escherichia coli (200 μl per 20 g body weight) and sterile saline (200 μl per 20 g body weight); KB treatment group was injected with KB (200 μl per 20 g body weight) at 5 min after heat-killed E. coli was injected; the injection doses of heat-killed E. coli were 1.0×10^11 CFU/kg, and injection doses of KB were 30 mg/kg. […]

[1] = single dose KB 60 mg/kg, E. coli 1.0×10^11 CFU/kg

For `NCCCN(CCCCNCCCNC(=O)CCc1ccc(O)c(O)c1)C(=O)CCc1ccc(O)c(O)c1` [KB, Kukoamine B], which “survival rates, multiple dose” value (KB 1.25, 2.5 and 5 mg/kg every 8 h for 3 days) is on record?
Its value is “improve survival rates”.

And the “mortality rate in 7 days, single dose” value (KB 15, 30 and 60 mg/kg 5 min after heat-killed E. coli)?
Its value is “decreased with the increasing doses of KB”.

And the “protective effect, KB given after 2 h (4, 6 and 8 h)” value [1]?
The value was “no longer has a significant protective effect”.

And the “survival rate, KB given 2 h after heat-killed E. coli” value [1]?
The value was “still can increase the survival rate”.
